Results on one compound are retold here after ChEMBL document CHEMBL5113492, “Design, synthesis, and biological evalution of bifunctional inhibitors against Hsp90-HDAC6 interplay” (Eur J Med Chem, 2022).

The nature of data set [1]: Toxicity in NSG mouse xenografted with human NCI-H1975 cells assessed as abnormal behavior at 25 mg/kg,ip measured after 6 weeks. In kind it is organism-based. The note with it: in vivo, 1008 h. In general terms: In xenograft studies the graft and the host belong to different species.
Data set [2] concerns the target T1, Heat shock protein HSP90 (Homo sapiens) (UniProt P07900+P08238). The data set is described as follows: Inhibition of HSP90 in human NCI-H1975 cells assessed as upregulation of HSP70 expression at 2 uM incubated for 24 hrs by western blot analysis. The data set is classed as cell-based.
Data set [3] can be described thus: Toxicity in NSG mouse xenografted with human NCI-H1975 cells assessed as change in number of retina at 50 mg/kg,ip measured after 6 weeks by H and E staining based assay. The data set is classed as organism-based. As to conditions: in vivo, 1008 h.
Data set [4] can be described thus: Toxicity in NSG mouse xenografted with human NCI-H1975 cells assessed as change in structure of retina at 25 mg/kg,ip measured after 6 weeks by H and E staining based assay. In kind it is organism-based. The note with it: in vivo, 1008 h.
Data set [5] concerns the target T1, Heat shock protein HSP90 (Homo sapiens). The data set is described as follows: Inhibition of HSP90 in human NCI-H1975 cells assessed as downregulation of Met expression at 0.05 to 2 uM incubated for 24 hrs by western blot analysis. As to conditions: dose 0.05-2 µM, DDE = dose-dependent effect. The data set is classed as cell-based. For orientation: A western blot detects proteins with antibodies after separation by electrophoresis.

Data set [6] in a line: Toxicity in NSG mouse xenografted with human NCI-H1975 cells assessed as histological abnormalities in ocular region at 50 mg/kg,ip measured after 6 weeks by H and E staining based assay. The data set is classed as organism-based. The note with it: in vivo, 1008 h.
The target of data set [7] is T2, Protein deacetylase HDAC6 (Homo sapiens) (UniProt Q9UBN7).
T2 sequence (whole entry): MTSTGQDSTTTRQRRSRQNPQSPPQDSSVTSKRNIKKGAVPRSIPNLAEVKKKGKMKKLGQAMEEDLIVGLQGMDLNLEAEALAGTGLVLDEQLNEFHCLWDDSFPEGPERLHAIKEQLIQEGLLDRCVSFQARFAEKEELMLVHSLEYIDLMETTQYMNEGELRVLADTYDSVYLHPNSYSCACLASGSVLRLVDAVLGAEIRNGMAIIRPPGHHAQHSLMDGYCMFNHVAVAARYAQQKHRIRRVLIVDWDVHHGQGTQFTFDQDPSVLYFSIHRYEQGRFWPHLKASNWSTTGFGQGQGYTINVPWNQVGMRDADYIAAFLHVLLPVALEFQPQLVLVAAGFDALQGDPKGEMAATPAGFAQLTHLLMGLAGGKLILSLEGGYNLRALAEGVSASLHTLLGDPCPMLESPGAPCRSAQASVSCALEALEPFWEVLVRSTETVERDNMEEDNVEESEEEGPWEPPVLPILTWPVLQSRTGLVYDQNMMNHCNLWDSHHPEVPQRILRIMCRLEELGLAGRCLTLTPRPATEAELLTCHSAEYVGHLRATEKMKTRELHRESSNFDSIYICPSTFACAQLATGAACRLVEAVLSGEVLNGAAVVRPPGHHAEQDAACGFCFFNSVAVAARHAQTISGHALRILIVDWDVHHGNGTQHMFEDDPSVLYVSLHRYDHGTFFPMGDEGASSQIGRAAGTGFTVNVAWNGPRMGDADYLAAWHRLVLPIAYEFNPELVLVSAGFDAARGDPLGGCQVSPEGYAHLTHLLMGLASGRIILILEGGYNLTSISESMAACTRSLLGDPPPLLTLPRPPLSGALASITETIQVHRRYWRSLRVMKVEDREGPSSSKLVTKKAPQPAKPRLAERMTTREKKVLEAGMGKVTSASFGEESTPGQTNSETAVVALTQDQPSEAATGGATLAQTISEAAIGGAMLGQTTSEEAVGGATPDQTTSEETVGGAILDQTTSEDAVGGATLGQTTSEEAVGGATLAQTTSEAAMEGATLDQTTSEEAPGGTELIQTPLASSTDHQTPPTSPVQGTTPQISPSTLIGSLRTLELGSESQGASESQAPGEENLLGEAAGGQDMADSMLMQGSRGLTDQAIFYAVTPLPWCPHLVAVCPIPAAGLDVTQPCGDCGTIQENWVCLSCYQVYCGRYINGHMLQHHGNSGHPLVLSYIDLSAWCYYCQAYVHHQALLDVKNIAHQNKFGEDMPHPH
Description: Inhibition of HDAC6 in human NCI-H1975 cells assessed as downregulation of HDAC6 expression at 0.05 to 2 uM incubated for 24 hrs by western blot analysis. The data set is classed as cell-based. As to conditions: dose 0.05-2 µM, DDE = dose-dependent effect.

In data set [8] the target is T1, Heat shock protein HSP90 (Homo sapiens). Description: Inhibition of HSP90 in human NCI-H1975 cells assessed as downregulation of EGFR expression at 0.05 to 2 uM incubated for 24 hrs by western blot analysis. In kind it is cell-based. The note with it: dose 0.05-2 µM, DDE = dose-dependent effect.
In data set [9] the test system is Mus musculus. The data set is described as follows: In vivo inhibition of HSP90 in human NCI-H1975 cells xenografted with NSG mouse assessed as downregulation of EGFR expression at 25 mg/kg,ip measured after 6 weeks by immunohistochemistry analysis. In kind it is functional, organism-based.
In data set [10] the test system is NCI-H1975. The data set is described as follows: Induction of apoptosis in human NCI-H1975 cells assessed as caspase-8 cleavage at 0.05 to 2 uM incubated for 24 hrs by western blot analysis. The data set is classed as functional, cell-based. As to conditions: dose 0.05-2 µM, DDE = dose-dependent effect.
Data set [11] addresses T1, Heat shock protein HSP90 (Homo sapiens). Description: Inhibition of HSP90 in human NCI-H1975 cells assessed as downregulation of EGFR expression at 2 uM incubated for 24 hrs by western blot analysis. The data set is classed as cell-based.
A short description of data set [12]: Toxicity in NSG mouse xenografted with human NCI-H1975 cells assessed as change in structure of retina at 50 mg/kg,ip measured after 6 weeks by H and E staining based assay. The data set is classed as organism-based. The note with it: in vivo, 1008 h.
Data set [13] deals with Mus musculus. The data set is described as follows: In vivo inhibition of HDAC1 in human NCI-H1975 cells xenografted with NSG mouse assessed as increase in acetylation of Histone H3 at 25 mg/kg,ip measured after 6 weeks by immunohistochemistry analysis. The data set is classed as functional, organism-based.
In data set [14] the target is T1, Heat shock protein HSP90 (Homo sapiens). Description: Inhibition of HSP90 in human NCI-H1975 cells assessed as downregulation of Met expression at 2 uM incubated for 24 hrs by western blot analysis. In kind it is cell-based.
Data set [15] relates to NCI-H1975. Description: Antitumor activity against NSG mouse xenografted with human NCI-H1975 cells assessed as reduction on tumor growth at 25 mg/kg,ip measured after 6 weeks. The data set is classed as functional, organism-based.
Data set [16] addresses T2, Protein deacetylase HDAC6 (Homo sapiens). Description: Inhibition of HDAC6 in human NCI-H1975 cells assessed as increase in acetylation of alpha tubulin at 1 uM incubated for 24 hrs by DAPI staining based immunofluorescence microscopy. In kind it is cell-based.
Data set [17] shares this target. Description: Inhibition of HDAC6 in human NCI-H1975 cells assessed as microtubule polymerization at 1 uM incubated for 24 hrs by DAPI staining based immunofluorescence microscopy. The data set is classed as cell-based.
The subject of data set [18] is NCI-H1975. Description: Antitumor activity against NSG mouse xenografted with human NCI-H1975 cells assessed as reduction on tumor growth at 50 mg/kg,ip measured after 6 weeks. In kind it is functional, organism-based.
A short description of data set [19]: Toxicity in NSG mouse xenografted with human NCI-H1975 cells assessed as change in number of retina at 25 mg/kg,ip measured after 6 weeks by H and E staining based assay. As to conditions: in vivo, 1008 h. In kind it is organism-based.
The nature of data set [20]: Toxicity in NSG mouse xenografted with human NCI-H1975 cells assessed as abnormal behavior at 50 mg/kg,ip measured after 6 weeks. In kind it is organism-based. As to conditions: in vivo, 1008 h.
The target of data set [21] is T2, Protein deacetylase HDAC6 (Homo sapiens). The data set is described as follows: Inhibition of HDAC6 in human NCI-H1975 cells assessed as increase in acetylation of alpha tubulin at 2 uM incubated for 24 hrs by western blot analysis. In kind it is cell-based.
The target of data set [22] is T1, Heat shock protein HSP90 (Homo sapiens). The data set is described as follows: Inhibition of HSP90 in human NCI-H1975 cells assessed as downregulation of Her2 expression at 0.05 to 2 uM incubated for 24 hrs by western blot analysis. The note with it: dose 0.05-2 µM, DDE = dose-dependent effect. The data set is classed as cell-based.

Calls of active or inactive are those of the source. The rule behind the calls is not given here.

Consider `CC(C)c1cc(C(=O)N(C)Cc2ccc(C(=O)NO)cc2)c(O)cc1O`, for which the Activity entry in [1] was “Non-Toxic”; in data set [3], “Non-Toxic”; in data set [4], “Non-Toxic”; in data set [6], “Non-Toxic”; in data set [10], “Dde”; in data set [12] it was “Non-Toxic”. Moreover, the Activity result in data set [19] and in [20] was “Non-Toxic” each time. The inhibition result in data set [2], in data set [9], in data set [11], in [13], in [14] and in data set [16] was “Active” throughout. Also, the inhibition entry in [17] and in data set [21] was “Active” each time. Further, the inhibition entry in data set [5], in data set [7], in [8] and in data set [22] was “Dde” in each case. Besides, the outcome in data set [15] and in data set [18] was Active.
